What was measured:
Assay type in all cases: functional, cell-based
[1] = molecular target: T1, Glutamate receptor 2 (Homo sapiens, UniProt P42262); assay: Activity at human recombinant iGluR2 flip expressed in HEK293 cells measured as change in intracellular calcium ion concentration in presence of glutamate by FLIPR assay
[2] = molecular target: T2, Glutamate receptor 4 (Homo sapiens, UniProt P48058); assay: Activity at human recombinant iGluR4 flip expressed in HEK293 cells measured as change in intracellular calcium ion concentration in presence of glutamate by FLIPR assay
[3] = molecular target: T2, Glutamate receptor 4; assay: Activity at human recombinant iGluR4 flop expressed in HEK293 cells measured as change in intracellular calcium ion concentration in presence of glutamate by FLIPR assay
[4] = molecular target: T1, Glutamate receptor 2; assay: Activity at human recombinant iGluR2 flop expressed in HEK293 cells measured as change in intracellular calcium ion concentration in presence of glutamate by FLIPR assay

T2 sequence (P48058 whole entry): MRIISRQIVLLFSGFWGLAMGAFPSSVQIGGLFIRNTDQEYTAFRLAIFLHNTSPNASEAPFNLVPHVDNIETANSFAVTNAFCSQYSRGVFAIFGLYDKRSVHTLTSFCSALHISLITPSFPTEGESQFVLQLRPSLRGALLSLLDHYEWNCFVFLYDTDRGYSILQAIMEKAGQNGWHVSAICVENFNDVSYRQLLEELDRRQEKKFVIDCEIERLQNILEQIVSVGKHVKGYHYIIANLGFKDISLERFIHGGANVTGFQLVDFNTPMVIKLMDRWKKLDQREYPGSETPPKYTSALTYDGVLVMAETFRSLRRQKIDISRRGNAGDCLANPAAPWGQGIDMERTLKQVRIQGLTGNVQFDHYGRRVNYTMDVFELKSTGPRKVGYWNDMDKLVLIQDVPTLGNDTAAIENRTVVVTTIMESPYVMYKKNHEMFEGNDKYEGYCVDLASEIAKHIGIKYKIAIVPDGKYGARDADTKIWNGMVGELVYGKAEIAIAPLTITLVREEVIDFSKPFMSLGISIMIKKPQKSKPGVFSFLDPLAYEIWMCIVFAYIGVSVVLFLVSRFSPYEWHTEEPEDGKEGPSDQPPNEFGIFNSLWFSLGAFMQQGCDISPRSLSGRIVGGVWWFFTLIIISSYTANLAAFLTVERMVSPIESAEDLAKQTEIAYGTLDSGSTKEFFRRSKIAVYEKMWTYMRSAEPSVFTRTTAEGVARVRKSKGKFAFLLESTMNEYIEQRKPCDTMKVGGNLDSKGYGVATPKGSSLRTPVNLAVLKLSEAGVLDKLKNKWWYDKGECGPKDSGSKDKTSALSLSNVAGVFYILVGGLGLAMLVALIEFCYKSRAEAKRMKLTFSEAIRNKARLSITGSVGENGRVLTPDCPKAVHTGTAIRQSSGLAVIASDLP
T1 sequence (P42262 whole entry): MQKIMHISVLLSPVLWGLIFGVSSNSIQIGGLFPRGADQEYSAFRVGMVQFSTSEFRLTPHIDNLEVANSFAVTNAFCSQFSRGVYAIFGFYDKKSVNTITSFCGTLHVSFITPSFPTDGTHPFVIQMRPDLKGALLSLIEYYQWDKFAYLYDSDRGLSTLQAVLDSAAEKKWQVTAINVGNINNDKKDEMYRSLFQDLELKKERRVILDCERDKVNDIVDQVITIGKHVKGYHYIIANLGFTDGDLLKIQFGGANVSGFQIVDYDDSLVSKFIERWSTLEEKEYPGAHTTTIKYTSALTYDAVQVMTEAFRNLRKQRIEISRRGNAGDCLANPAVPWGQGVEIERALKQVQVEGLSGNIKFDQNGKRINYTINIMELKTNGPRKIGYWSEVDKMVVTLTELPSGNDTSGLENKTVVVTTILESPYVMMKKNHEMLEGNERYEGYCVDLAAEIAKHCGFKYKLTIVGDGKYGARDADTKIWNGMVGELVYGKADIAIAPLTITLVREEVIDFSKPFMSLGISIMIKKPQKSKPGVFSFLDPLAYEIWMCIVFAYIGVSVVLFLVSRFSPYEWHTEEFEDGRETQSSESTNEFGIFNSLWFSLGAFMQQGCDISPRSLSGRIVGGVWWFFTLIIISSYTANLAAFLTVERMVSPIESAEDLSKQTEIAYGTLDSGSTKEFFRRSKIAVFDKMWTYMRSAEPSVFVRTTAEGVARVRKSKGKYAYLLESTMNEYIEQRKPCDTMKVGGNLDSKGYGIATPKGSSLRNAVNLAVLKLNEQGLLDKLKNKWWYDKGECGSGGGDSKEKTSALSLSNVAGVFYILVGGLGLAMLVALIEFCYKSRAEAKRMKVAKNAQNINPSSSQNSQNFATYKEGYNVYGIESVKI

Structure (SMILES) | EC50 [1] | EC50 [2] | EC50 [3] | EC50 [4]
CSc1sc(C(=O)O)c(-c2ccc(C(C)(C)C)cc2)c1C#N | 0.097 µM | 0.214 µM | 1.56 µM | 0.309 µM
CCc1c(C#N)c(-c2ccc(-c3ccc(F)cc3)cc2)c(C(=O)O)n1C | 0.345 µM | 0.242 µM | 2.95 µM | 1.03 µM
CCSc1c(C#N)c(-c2ccc(-c3ccccc3)cc2)c(C(=O)O)n1C |  | 0.619 µM |  | 
CCc1c(C#N)c(-c2ccc(-c3cccc(C#N)c3)cc2)c(C(=O)O)n1C | 0.395 µM | 0.631 µM | > 3 µM | 0.974 µM
CCc1c(C#N)c(-c2ccc(-c3ccc(C)cc3)cc2)c(C(=O)O)n1C | 0.412 µM | 1.14 µM | > 3 µM | 1.65 µM
CCc1c(C#N)c(-c2ccc(-c3ccccc3C)cc2)c(C(=O)O)n1C | 0.27 µM | 0.79 µM | 1.18 µM | 0.99 µM
CCc1c(C#N)c(-c2ccc(-c3ccccc3OC)cc2)c(C(=O)O)n1C | 0.28 µM | 0.673 µM | 0.386 µM | 0.902 µM
CCc1c(C#N)c(-c2ccc(-c3ccccc3SC)cc2)c(C(=O)O)n1C | 0.057 µM | 0.105 µM | 0.077 µM | 0.032 µM
CCc1c(C#N)c(-c2ccc(-c3cccc(OC)c3)cc2)c(C(=O)O)n1C | 0.391 µM | 1.05 µM | > 3 µM | 0.924 µM
Cc1c(C#N)c(-c2ccc(-c3ccccc3)cc2)c(C(=O)O)n1C | 0.308 µM | 0.532 µM | 2.39 µM | 0.391 µM
CCc1c(C#N)c(-c2ccc(-c3cccc(F)c3)cc2)c(C(=O)O)n1C | 0.426 µM | 0.223 µM | > 3 µM | 1.49 µM
CCc1c(C#N)c(-c2ccc(-c3ccccc3F)cc2)c(C(=O)O)n1C | 0.111 µM | 0.08 µM | 0.185 µM | 0.143 µM
CCc1c(C#N)c(-c2ccc(-c3cccc(C)c3)cc2)c(C(=O)O)n1C | 0.965 µM | 2.08 µM | > 3 µM | 2.13 µM
CCc1c(C#N)c(-c2ccc(-c3cccc(Cl)c3)cc2)c(C(=O)O)n1C | 0.186 µM | 1.08 µM | > 3 µM | 0.9 µM
CC(C)Sc1c(C#N)c(-c2ccc(-c3ccccc3)cc2)c(C(=O)O)n1C | > 3 µM | > 3 µM | > 3 µM | > 3 µM
CCOc1ccccc1-c1ccc(-c2c(C#N)c(CC)n(C)c2C(=O)O)cc1 | 0.083 µM | 0.158 µM | 0.146 µM | 0.036 µM
CCc1c(C#N)c(-c2ccc(-c3ccccc3Cl)cc2)c(C(=O)O)n1C | 0.042 µM | 0.225 µM | 0.157 µM | 0.055 µM
CCc1c(C#N)c(-c2ccc(-c3ccccc3C#N)cc2)c(C(=O)O)n1C | 0.082 µM | 0.056 µM | 0.053 µM | 0.073 µM
CCc1c(C#N)c(-c2ccc(-c3ccc(C#N)cc3)cc2)c(C(=O)O)n1C | 0.423 µM | 0.373 µM | > 3 µM | 0.37 µM
CSc1c(C#N)c(-c2ccc(-c3ccccc3)cc2)c(C(=O)O)n1C | 0.174 µM | 0.394 µM | 1.3 µM | 0.473 µM
CCc1c(C#N)c(-c2ccc(-c3ccc(OC)cc3)cc2)c(C(=O)O)n1C | 0.423 µM | 0.738 µM | > 3 µM | 0.37 µM
CCc1c(C#N)c(-c2ccc(-c3ccccc3)cc2)c(C(=O)O)n1C | 0.103 µM | 0.213 µM | 1.77 µM | 0.398 µM
CCc1c(C#N)c(-c2ccc(-c3ccc(Cl)cc3)cc2)c(C(=O)O)n1C | 0.142 µM | 0.91 µM | > 3 µM | 0.984 µM
Cn1c(Br)c(C#N)c(-c2ccc(-c3ccccc3)cc2)c1C(=O)O | > 3 µM | 0.679 µM | 1.69 µM | > 3 µM
Cn1cc(C#N)c(-c2ccc(-c3ccccc3)cc2)c1C(=O)O | > 3 µM | > 3 µM | > 3 µM | > 3 µM
